From publication PMC11973094, “Formononetin and mizoribine inhibit Porcine Reproductive and Respiratory Syndrome Virus replication in vitro” (Frontiers in Nutrition, 2025)

Key:
Marc-145 cells = assay: Cytotoxicity (CC50) by CCK-8 assay in Marc-145 cells; format: cell-based; conditions: for Non-cytotoxic concentrations: Marc-145 and PAM cells, treatment durations shorter than 48 h
Protocol: Cells were treated in a 96-well plate using DMEM supplemented with 8% FBS. After achieving a monolayer formation, the cells were treated with multiple concentrations of the test compound, which were diluted in DMEM containing 2% FBS and added to six replicate wells. As a control, a blank solution consisting of 0.5% DMSO in DMEM was employed. […] Subsequently, the half-maximal cytotoxic concentrations (CC50) was measured following the protocol described in section 2.2 of our previous work ([18]). […] EC50 was determined by assessing PRRSV genomic expression levels after three freeze–thaw cycles, and results were plotted using GraphPad Prism 8.
(§1) Figure 2 Evaluating the cytotoxicity of FMN and MZR on Marc-145 and PAM Cells. (A,B) CC50 values for FMN in Marc-145 cells at 48 and 72 h, determined via the CCK-8 assay. (C,D) CC50 of FMN in PAM cells assessed at 48 and 72 h. (E,F) CC50 values for MZR in Marc-145 cells at 48 and 72 h. (G,H) CC50 for MZR in PAM cells, also measured at 48 and 72 h. (I) The antiviral activity of FMN against the PRRSV VR-2332 strain, evaluated via IFA. (J) Antiviral effectiveness of MZR against the VR-2332 strain, assessed using IFA. Control samples were treated with a matching volume of 0.4% DMSO in DMEM. Black dots within the figure symbolize individual data points from each independent experiment. IFA images are from three experimental replicates.

[1] = Cytotoxicity (CC50) by CCK-8 assay in PAM cells; format: cell-based, Porcine; conditions: pig
Protocol: (§2) Cells were treated in a 96-well plate using DMEM supplemented with 8% FBS. After achieving a monolayer formation, the cells were treated with multiple concentrations of the test compound, which were diluted in DMEM containing 2% FBS and added to six replicate wells. As a control, a blank solution consisting of 0.5% DMSO in DMEM was employed. The cells treated with the compound were incubated at 37°C in a humidified atmosphere with 5% CO2 for 48 or 72 h. Subsequently, the half-maximal cytotoxic concentrations (CC50) was measured following the protocol described in section 2.2 of our previous work ([18]). […] EC50 was determined by assessing PRRSV genomic expression levels after three freeze–thaw cycles, and results were plotted using GraphPad Prism 8.
as §1

PAM cells = assay: Cytotoxicity (CC50) by CCK-8 assay in PAM cells; format: cell-based, Porcine
Protocol: as §2, §1

PRRSV VR-2332 strain [2] = assay: Antiviral EC50 against PRRSV VR-2332 in PAM cells (PRRSV genomic expression); format: cell-based; conditions: Porcine reproductive and respiratory syndrome virus
Protocol: (§3) Viral solutions were diluted in a 10-fold gradient. Aliquots of solutions containing varying concentrations of the virus (100 μL each) and DMEM with 2% FBS (100 μL) were added to each well. Add 100 μL of 2% FBS DMEM (without PRRSV) to the control wells. The plates were incubated for 4 days at 37°C in a humidified atmosphere with 5% CO2, after which the virus TCID50 values were calculated using the Reed and Muench formula. To evaluate PRRSV gene expression, we employed the relative quantitative Reverse Transcription Quantitative Polymerase Chain Reaction (qRT-PCR) technique. The resultant data were processed using Design & Analysis Software (Thermo, version 2.6.0) and normalized based on the 2^−ΔΔCt method. For the determination of viral copy numbers, absolute quantitative qRT-PCR was utilized, with sample normalization achieved by quantifying plasmid concentrations prior to the detection process. The specific methods are as described in section 2.4 of our previous paper ([18]). The upstream and downstream primers were: PRRSV 5’-[…]’ and 5’-[…]-3′; Marc-145-GAPDH 5’-[…]-3′ and 5’-[…]-3′; PAM-GAPDH 5’-TCTGGCAAAGTGGACATT-3′ and 5’-[…]-3′.
(§4) Cells were treated in a 96-well plate using DMEM supplemented with 8% FBS. After achieving a monolayer formation, the cells were treated with multiple concentrations of the test compound, which were diluted in DMEM containing 2% FBS and added to six replicate wells. As a control, a blank solution consisting of 0.5% DMSO in DMEM was employed. The cells treated with the compound were incubated at 37°C in a humidified atmosphere with 5% CO2 for 48 or 72 h. Subsequently, the half-maximal cytotoxic concentrations (CC50) was measured following the protocol described in section 2.2 of our previous work ([18]). For the determination of the half-maximal effective concentration (EC50), each concentration was tested in triplicate wells, using 0.4% DMSO as a blank control. EC50 was determined by assessing PRRSV genomic expression levels after three freeze–thaw cycles, and results were plotted using GraphPad Prism 8.

PRRSV VR-2332 strain [3] = assay: Antiviral EC50 against PRRSV VR-2332 in Marc-145 cells (PRRSV genomic expression); format: cell-based; conditions: Porcine reproductive and respiratory syndrome virus, MARC145, VR-2332 strain
Protocol: as §3, §4

PRRSV VR-2332 strain [4] = assay: Viral titer (TCID50) and viral genome (qRT-PCR) of VR-2332 after 36-h incubation with the compounds; format: cell-based, Porcine Reproductive and Respiratory Syndrome Virus; conditions: for Correlation of concentration with relative expression of the PRRSV genome / Correlation of concentration with viral titer: 36-h incubation, linear fit slope m negative; for Concentrations effectively suppressing viral replication: dose-dependent inhibition
Protocol: as §3
Figure 3 Assessing the antiviral potency of FMN and MZR on PRRSV. This figure delineates the evaluation of FMN and MZR at varying concentrations for their antiviral effects on the VR-2332 strain. (A,C) Display the EC50 of FMN in PAM and Marc-145 cells, respectively. (B,D) Illustrate the EC50 of MZR in PAM and Marc-145 cells. (E,F) Show alterations in the viral titers of the VR-2332 strain post 36-h incubation with distinct concentrations of FMN or MZR. (G,H) Represent the viral genome changes under similar conditions. Each point in the figure corresponds to raw data from individual experiments. Linear fit slopes are marked in red. Error bars indicate the mean ± SD. TEXT PRINTED IN THE PICTURE: (A) FMN: PAM: EC50: 8.716; PAM: EC90: 223.542 | (B) MZR: PAM: EC50: 8.274; PAM: EC90: 19.945 | (C) FMN: Marc-145: EC50: 16.863; Marc-145: EC90: 104.819 | (D) MZR: Marc-145: EC50: 22.335; Marc-145: EC90: 63.856

PRRSV VR-2332 strain [5] = assay: Indirect immunofluorescence assay (IFA) of VR-2332 in PAM cells; format: cell-based, Porcine Reproductive and Respiratory Syndrome Virus; conditions: within the safety range
Protocol: The following antibodies were used for IFA: Mouse Anti-SR30 (Rtilab, SR30-A) and Goat Anti-Mouse FITC (Bioss, bs-0368G-FITC). After virus inoculation, cells were fixed with 80% cold acetone according to previous experimental conditions for IFA ([18]). A Leica DMI6000 microscope was used for observation.
as §1

PRRSV GSWW-18 strain = assay: Viral titer and gene expression of GSWW-18 strain in PAM cells; format: cell-based, Porcine Reproductive and Respiratory Syndrome Virus; conditions: 36 h
Protocol: as §3
(§5) Figure 4 Inhibitory effects of FMN and MZR on GSWW-18 and GSWW-15 Strains. (A,C) Changes in PRRSV viral titers in PAM cells incubated with 20 μM of FMN or MZR for 36 h with the GSWW-18 strain. (B,D) Changes in PRRSV viral genome in PAM cells after 36 h of incubation with 20 μM of FMN or MZR with the GSWW-15 strain. The black dots in the figure represent the raw data from each independent experiment. p-values were calculated using one-way ANOVA with Dunnett’s multiple-comparison test. The p-value less than 0.03 was considered statistically significant. Error bars represent the mean ± SD.

PRRSV GSWW-15 strain = assay: Viral titer and gene expression of GSWW-15 strain in PAM cells; format: cell-based, Porcine Reproductive and Respiratory Syndrome Virus; conditions: 36 h
Protocol: as §3, §5

PRRSV VR-2332 strain [6] = assay: Time-of-addition assay, Marc-145 cells infected with VR-2332 (MOI = 1); format: cell-based, Porcine Reproductive and Respiratory Syndrome Virus
Source text: The assay commenced with seeding cells into a 96-well plate, followed by their cultivation in DMEM supplemented with 8% FBS. Upon achieving a monolayer, the cells were infected with the VR-2332 strain of PRRSV at a multiplicity of infection (MOI) of 1. One hour after infection, the viral inoculum was discarded, and the cells were cleansed with ice-cold PBS. DMSO or various concentrations of FMN or MZR were then introduced to the culture at different time intervals, as depicted in Figure 1A. Thirty-six hours post-infection, the expression levels of PRRSV RNA were quantified using previously described methods.
Figure 1 Time-of-addition experiment with FMN or MZR. (A) This schematic diagram illustrates the classical experimental protocol for administering drugs at different time points. The experiment began with Marc-145 cells uniformly infected with VR-2332 (MOI = 1) at 0 h, followed by adding varying concentrations of FMN or MZR at specific times. (B,C) FMN or MZR was introduced at −4, 0, 2, 4, 8, and 16 h to examine their impact on various stages of PRRSV replication. All samples were collected for analysis 36 h post-infection. The colors of the bars in the figure correspond to the time points as detailed in (A). Each symbol represents an independent biological replicate. The p-values are indicated, with ‘ns’ denoting p > 0.1234. These values were calculated using one-way ANOVA with Dunnett’s multiple-comparison test, and a p-value less than 0.0332 was considered statistically significant.

[7] = added 16 h after infection, P > 0.1234
[8] = added in the initial stages post-infection, collected 36 h post-infection
[9] = lower concentrations added 8 h post-infection, P > 0.1234

Compound | Non-cytotoxic concentrations (Marc-145 cells) | EC50 (PRRSV VR-2332 strain [2]) [µM] | EC50 (PRRSV VR-2332 strain [2]; Figure 3, unit inferred) [µM] | EC90 (PRRSV VR-2332 strain [2]; Figure 3, unit inferred) [µM] | EC50 (PRRSV VR-2332 strain [3]) [µM] | EC50 (PRRSV VR-2332 strain [3]; Figure 3, unit inferred) [µM] | EC90 (PRRSV VR-2332 strain [3]; Figure 3, unit inferred) [µM] | Correlation of concentration with relative expression of the PRRSV genome (PRRSV VR-2332 strain [4]) | Correlation of concentration with viral titer (PRRSV VR-2332 strain [4]) | Concentrations effectively suppressing viral replication (PRRSV VR-2332 strain [4]) | Antiviral activity by IFA (PRRSV VR-2332 strain [5]) | Gene expression levels (PRRSV GSWW-18 strain) | Viral titers (PRRSV GSWW-18 strain) | Gene expression levels (PRRSV GSWW-15 strain) | Viral titers (PRRSV GSWW-15 strain) | Effect on PRRSV replication (PRRSV RNA) (PRRSV VR-2332 strain [6]; [7]) | Effect on PRRSV replication (PRRSV RNA) (PRRSV VR-2332 strain [6]; [8]) | Effect on PRRSV replication (PRRSV RNA) (PRRSV VR-2332 strain [6]; [9]) | further results
COc1ccc(-c2coc3cc(O)ccc3c2=O)cc1 [FMN, 7-hydroxy-3-(4-methoxyphenyl)-4H-chromen-4-one] | below 100 μM | ~8.72 | 8.72 | 224 | ~16.9 | 16.9 | 105 | negatively correlated | negatively correlated | above 20 μM | antiviral efficacy | dose-dependent inverse relationship | dose-dependent reduction | dose-dependent inverse relationship | dose-dependent reduction | entirely ineffective | pronounced antiviral activity | did not significantly impede PRRSV replication | CC50 at 72 h ([1]; 72 h, printed in the picture of Figure 2D, no unit): 52 µM; CC50 at 72 h ([1]; 72 h exposure): 52 µM; Cytotoxicity (PAM cells; 48 h): non-toxic
NC(=O)c1ncn([C@@H]2O[C@H](CO)[C@@H](O)[C@H]2O)c1O [MZR, 1-[(2R,3R,4S,5R)-3,4-dihydroxy-5-(hydroxymethyl)oxolan-2-yl]-5-hydroxy-1H-imidazole-4-carboxamide, reference compound] | below 100 μM | ~8.27 | 8.27 | 19.9 | ~22.3 | 22.3 | 63.9 | negatively correlated | negatively correlated | above 20 μM | antiviral efficacy | dose-dependent inverse relationship | dose-dependent reduction | dose-dependent inverse relationship | dose-dependent reduction | entirely ineffective | pronounced antiviral activity | did not significantly impede PRRSV replication | Cytotoxicity (Marc-145 cells; Marc-145 cells, various concentrations, 48 and 72 h): minimal cytotoxicity; Cytotoxicity (PAM cells; treatment up to 72 h): negligible cytotoxicity
